{"source": "ChEMBL document CHEMBL5625196", "about": "“Cell-active, irreversible covalent inhibitors that selectively target the catalytic lysine of EGFR by using fluorosulfate-based SuFEx chemistry” (Eur J Med Chem, 2023)", "key": {"[1]": {"test": "physchem", "settings": "PBS"}, "[2]": {"test": "physchem", "settings": "cell-culture medium"}, "[3]": {"test": "AUC (0 to infinity) in Sprague-Dawley rat at 2 mg/kg, iv measured after 24 hrs by LC-MS/MS analysis", "assay_type": "ADME, organism-based", "settings": "in vivo"}, "[4]": {"test": "Cmax in Sprague-Dawley rat at 5 mg/kg, po measured after 24 hrs by LC-MS/MS analysis", "assay_type": "ADME, organism-based", "settings": "in vivo"}, "[5]": {"test": "Clearance in Sprague-Dawley rat at 2 mg/kg, iv measured after 24 hrs by LC-MS/MS analysis", "assay_type": "ADME, organism-based", "settings": "in vivo"}, "[6]": {"test": "MRT in Sprague-Dawley rat at 2 mg/kg, iv measured after 24 hrs by LC-MS/MS analysis", "assay_type": "ADME, organism-based", "settings": "in vivo"}, "[7]": {"test": "in vitro", "settings": "dog, MDCK-MDR1"}, "[8]": {"test": "in vitro", "settings": "dog, MDCK-MDR1", "remark": "listed apart in the source"}, "[9]": {"test": "AUC (0 to t) in Sprague-Dawley rat at 2 mg/kg, iv measured after 24 hrs by LC-MS/MS analysis", "assay_type": "ADME, organism-based", "settings": "in vivo"}, "[10]": {"test": "AUC (0 to infinity) in Sprague-Dawley rat at 5 mg/kg, po measured after 24 hrs by LC-MS/MS analysis", "assay_type": "ADME, organism-based", "settings": "in vivo"}, "[11]": {"test": "physchem", "settings": "PBS", "remark": "listed apart in the source"}, "[12]": {"test": "Tmax in Sprague-Dawley rat at 5 mg/kg, po measured after 24 hrs by LC-MS/MS analysis", "assay_type": "ADME, organism-based", "settings": "in vivo"}, "[13]": {"test": "Volume of distribution at steady state in Sprague-Dawley rat at 2 mg/kg, iv measured after 24 hrs by LC-MS/MS analysis", "assay_type": "ADME, organism-based", "settings": "in vivo, read-out: Vdss"}, "[14]": {"test": "Half-life in Sprague-Dawley rat at 5 mg/kg, po measured after 24 hrs by LC-MS/MS analysis", "assay_type": "ADME, organism-based", "settings": "in vivo"}, "[15]": {"test": "in vitro", "settings": "mouse, mouse liver microsomes"}, "[16]": {"test": "MRT in Sprague-Dawley rat at 5 mg/kg, po measured after 24 hrs by LC-MS/MS analysis", "assay_type": "ADME, organism-based", "settings": "in vivo"}, "[17]": {"test": "Half-life in Sprague-Dawley rat at 2 mg/kg, iv measured after 24 hrs by LC-MS/MS analysis", "assay_type": "ADME, organism-based", "settings": "in vivo"}, "[18]": {"test": "in vitro", "settings": "dog, MDCK-MDR1", "remark": "listed apart in the source"}, "[19]": {"test": "AUC (0 to t) in Sprague-Dawley rat at 5 mg/kg, po measured after 24 hrs by LC-MS/MS analysis", "assay_type": "ADME, organism-based", "settings": "in vivo"}, "[20]": {"test": "in vitro", "settings": "dog, MDCK-MDR1", "remark": "listed apart in the source"}, "[21]": {"test": "Apparent volume of distribution in Sprague-Dawley rat at 2 mg/kg, iv measured after 24 hrs by LC-MS/MS analysis", "assay_type": "ADME, organism-based", "settings": "in vivo, read-out: Vz"}, "[22]": {"test": "physchem", "settings": "PBS", "remark": "listed apart in the source"}, "[23]": {"test": "Oral bioavailability in Sprague-Dawley rat at 5 mg/kg measured after 24 hrs by LC-MS/MS analysis", "assay_type": "ADME, organism-based", "settings": "in vivo"}, "[24]": {"settings": "dog, mdck-mdr1, 10 µM"}}, "data": [{"smiles": "C=CS(=O)(=O)Nc1cccc(Nc2ncnc3cc(OCCOC)c(OCCOC)cc23)c1", "values": [{"measurement": "half-life", "setting": "[1]", "value": "> 24", "unit": "h"}, {"measurement": "half-life", "setting": "[2]", "value": "> 24", "unit": "h"}]}, {"smiles": "COCCOc1cc2ncnc(Nc3cccc(OS(=O)(=O)F)c3)c2cc1OCCOC", "values": [{"measurement": "AUC(0-inf)", "setting": "[3]", "value": 1920, "unit": "ng·h/mL"}, {"measurement": "Cmax", "setting": "[4]", "value": 444, "unit": "ng/mL"}, {"measurement": "half-life", "setting": "[1]", "value": "> 8", "unit": "h"}, {"measurement": "clearance", "setting": "[5]", "value": 17.4, "unit": "mL/min/kg"}, {"measurement": "MRT", "setting": "[6]", "value": 1.16, "unit": "h"}, {"measurement": "recovery at 10 µM", "setting": "[7]", "value": 86.8, "unit": "%"}, {"measurement": "Papp A→B at 10 µM", "setting": "[8]", "value": 1.9, "unit": "×10⁻⁶ cm/s"}, {"measurement": "AUC(0-t) at 24 h", "setting": "[9]", "value": 1920, "unit": "ng·h/mL"}, {"measurement": "AUC(0-inf)", "setting": "[10]", "value": 1540, "unit": "ng·h/mL"}, {"measurement": "half-life", "setting": "[2]", "value": 24, "unit": "h"}, {"measurement": "half-life", "setting": "[11]", "value": "> 12", "unit": "h"}, {"measurement": "Tmax", "setting": "[12]", "value": 2.33, "unit": "h"}, {"measurement": "Vd", "setting": "[13]", "value": 1.22, "unit": "L/kg"}, {"measurement": "half-life", "setting": "[14]", "value": 0.81, "unit": "h"}, {"measurement": "half-life at 1 h", "setting": "[15]", "value": 0.493, "unit": "h"}, {"measurement": "MRT", "setting": "[16]", "value": 2.48, "unit": "h"}, {"measurement": "half-life", "setting": "[17]", "value": 0.93, "unit": "h"}, {"measurement": "recovery at 10 µM", "setting": "[18]", "value": 81.2, "unit": "%"}, {"measurement": "AUC(0-t) at 24 h", "setting": "[19]", "value": 1530, "unit": "ng·h/mL"}, {"measurement": "Papp B→A at 10 µM", "setting": "[20]", "value": 3.92, "unit": "×10⁻⁶ cm/s"}, {"measurement": "Vd", "setting": "[21]", "value": 1.4, "unit": "L/kg"}, {"measurement": "half-life", "setting": "[22]", "value": "> 8", "unit": "h"}, {"measurement": "bioavailability", "setting": "[23]", "value": 32, "unit": "%"}]}, {"smiles": "C[C@H]1O[C@@H](O[C@H]2[C@@H](O)C[C@H](O[C@H]3[C@@H](O)C[C@H](O[C@H]4CC[C@@]5(C)[C@H](CC[C@@H]6[C@@H]5C[C@@H](O)[C@]5(C)[C@@H](C7=CC(=O)OC7)CC[C@]65O)C4)O[C@@H]3C)O[C@@H]2C)C[C@H](O)[C@@H]1O", "note": "[DIGOXIN]", "values": [{"measurement": "recovery at 10 µM", "setting": "[7]", "value": 105, "unit": "%"}, {"measurement": "Papp", "setting": "[24]", "value": "6.41 10^-6 cm/s"}, {"measurement": "recovery at 10 µM", "setting": "[18]", "value": 97.9, "unit": "%"}, {"measurement": "Papp B→A at 10 µM", "setting": "[20]", "value": 18.5, "unit": "×10⁻⁶ cm/s"}]}]}
